Entries after “also recorded” stand apart in the source; their conditions may differ. Bridge positions count the residues as written; N and C are the ends. Square brackets hold non-standard residues; d marks the D form. Ends that are not written are not given here. Peptide text beside a SMILES is read from it. R8 = C=CCCCCCC[C@@](C)(N)C(=O)O; S5 = C=CCCC[C@](C)(N)C(=O)O
Experiments:
EGFR in HEK293T cells = assay: EGFR degradation assay in HEK293T cells; format: cell-based
Description: (§1) HEK293T or A549 cells in 6-well plate were washed with PBS two times and serum-starved overnight in DMEM. EGFR endocytosis was induced by incubation with DMEM medium (with 20 mM HEPES and 0.2% BSA) containing 200 ng/mL of EGF (Invitrogen). Cells were collected at each time point after EGF stimulation and lysed in Laemmli sample buffer (62.5 mM Tris-HCl, pH 6.8, 2% SDS, 25% glycerol, 5% β-mercaptoethanol). 20 μg protein lysate was collected for each time point, analyzed by SDS-PAGE and immunoblotted with anti-EGFR antibody (1:2000, Santa Cruz Biotechnology).

[1] = system: wild type EGFR in A549 cell line; assay: EGFR degradation assay in A549 cells; format: cell-based; conditions: A549 NSCLC
Description: as §1

[2] = target: T1, Beclin 1 coiled coil domain (Rattus norvegicus, UniProt Q91XJ1); assay: Light Scattering (LS) profile, dimer-to-monomer transition of Beclin 1 coiled coil domain; format: biochemical
T1 construct: thioredoxin-6xHis fusion (3C protease site) (cleaved yes); made in house; host or cells: Escherichia coli BL21 (DE3)
T1 sequence (Q91XJ1 174-266 limits assumed): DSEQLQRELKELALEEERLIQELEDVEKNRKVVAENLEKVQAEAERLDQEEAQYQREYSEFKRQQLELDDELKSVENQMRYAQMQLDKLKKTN
Source text: Tat sequence (SEQ ID NO: 13: YGRKKRRQRRR) was linked in front of all peptides except the rhodamine B labeled one to enhance cell permeability. The computationally optimized stapled peptide SP4 (SEQ ID NO: 4) was chosen and synthesized by a commercial vendor following the synthetic method pioneered by Kim et. al. (Kim, Grossmann et al. 2011) (FIG. 1C). The purified product was confirmed by mass spectroscopy and HPLC. The importance of the hydrocarbon staple in maintaining the α-helical structure of the designed peptide was confirmed by circular dichroism (CD) measurements (FIG. 1D). […] The Light Scattering (LS) profile of Beclin 1 coiled coil domain in absence of SP4 (SEQ ID NO: 4) indicates a homodimer with predicted molecular weight of 24.8 kDa.

HEK293T cells = assay: LC3 lipidation western blot in HEK293T cells; format: cell-based; conditions: 10 μM and 20 μM, absence or presence of chloroquine (50 μM)
Description: Transient DNA transfection was performed using Lipofectamine 2000 (Invitrogen). For Co-IP experiment to measure interaction between UVRAG and endogenous Beclin 1, FLAG-tagged UVRAG plasmids were transfected into HEK293T cells. […] For immunoblotting assay of LC3-II, p62 and EGFR degradation, FLAG-tagged UVRAG mutant plasmids were transfected into HEK293T cells, HeLa cell stably expressing GFP-LC3 and A549 NSCLC cells respectively. Cells were lysed in IP buffer (25 mM HEPES PH 7.5, 10 mM MgCl2, 150 mM NaCl, 1 mM EDTA.2Na, 1% Nonidet P-40, 1% Triton X-100 and 2% glycerol) or Laemmli sample buffer (62.5 mM Tris-HCl, pH 6.8, 2% SDS, 25% glycerol, 5% β-mercaptoethanol) with freshly added EDTA-free protease inhibitor cocktail (Roche). Protein lysate was either directly subject to immunoblot assay or Co-IP. For Co-IP, Lysates were incubated with FLAG magnetic beads (Sigma) overnight at 4° C. The beads were washed with 1×IP lysis buffer 5 times and then eluted with 2×SDS sample buffer.

[3] = system: mutated EGFR in H1975 cell lines; assay: EGFR degradation assay in H1975 cells; format: cell-based; conditions: H1975 NSCLC
[4] = system: GFP-tagged Beclin 1 in A549 cell; assay: Confocal colocalization with GFP-Beclin 1 in A549 cells; format: cell-based; conditions: A549 cells transiently expressing GFP-Beclin 1, 20 μM, 30 minutes
Description: A549 cells transiently expressing GFP-Beclin 1 were treated with 20 μM Rhodamine-SP4 (SEQ ID NO: 4) for 30 minutes and observed under a confocal microscope.

| Compound | EGFR degradation (EGFR in HEK293T cells) | EGFR degradation [1] | dimer-to-monomer transition in Beclin 1 coiled coil domain [2] | LC3 lipidation (HEK293T cells) | EGFR degradation [3] | colocalization with GFP-Beclin 1 [4] |
| --- | --- | --- | --- | --- | --- | --- |
| CC[C@H](C)[C@H](NC(=O)[C@H](CC(C)C)NC(=O)[C@H](CCCNC(=N)N)NC(C)=O)C(=O)N[C@@H](CO)C(=O)N[C@@H](CCC(=O)O)C(=O)N[C@@H](CC(C)C)C(=O)N[C@]1(C)CCCCCC/C=C/CCC[C@@](C)(C(=O)N[C@@H](C)C(N)=O)NC(=O)[C@H](CCCNC(=N)N)NC(=O)[C@H](CCC(N)=O)NC(=O)[C@H](CCCCN)NC(=O)[C@H](CCC(=O)O)NC(=O)[C@H](CCCNC(=N)N)NC(=O)[C@H](CC(=O)O)NC1=O [SP4] (Ac-RLISEL[R8]DREKQR[S5]A-NH2; staple (E) 7-14; N-terminus and C-terminus assumed) | significantly enhanced EGFR degradation | significantly enhanced EGFR degradation | can induce dimer-to-monomer transition | enhanced LC3 lipidation in dosage-dependent manner | significantly enhanced EGFR degradation | – |
| Rhodamine-labeled SP4: rhodamine B labeled SP4, without Tat sequence (RLISEL[R8]DREKQR[S5]A; staple 7-14 (inferred); also: rhodamine B label, position not given here) | – | – | – | – | – | colocalizes; also recorded: co-localized well |

Source: patent US10618939B2, “Hydrocarbon-stapled polypeptides for enhancement of endosome-lysosomal degradation” (The Hong Kong Polytechnic University, priority 2016, dated 2020)
